Reference: ChEMBL document CHEMBL4330130, “Synthesis of amide and sulfonamide substituted N-aryl 6-aminoquinoxalines as PFKFB3 inhibitors with improved physicochemical properties” (Bioorg Med Chem Lett, 2019)
≈ marks a conversion by molar mass, not a printed value.

Assay: Kinetic solubility of the compound in pH 8 Tris buffer at 500 uM after 90 by UV-Vis absorbance analysis
Type: physicochemical
Settings: read-out: Kinetic_solubility

Row | SMILES | solubility kinetic at 500 µM
1 | CN1CC(NC(=O)c2ccncc2Nc2cc(-c3ccc4ccn(C)c4c3)c3nccnc3c2)C1 | 170 µg/mL (≈ 367 µM)
2 | CN1CCC(NC(=O)c2ccncc2Nc2cc(-c3ccc4sc(N)nc4c3)c3nccnc3c2)C1 (stereo not given) | 241 µg/mL (≈ 485 µM)
3 | CN1CCC(CNC(=O)c2ccncc2Nc2cc(-c3ccc4ccn(C)c4c3)c3nccnc3c2)C1 (stereo not given) | 246 µg/mL (≈ 500 µM)
4 | Cc1csc2ccc(-c3cc(Nc4cnccc4C(=O)N[C@H]4CCN(C)C4)cc4nccnc34)cc12 | 80 µg/mL (≈ 162 µM)
5 | CN1CCC(NC(=O)c2ccncc2Nc2cc(-c3ccc4ccn(C)c4c3)c3nccnc3c2)CC1=O (stereo not given) | 48 µg/mL (≈ 94.9 µM)
6 | CC(=O)N1CC(NC(=O)c2ccncc2Nc2cc(-c3ccc4ccn(C)c4c3)c3nccnc3c2)C1 | 244 µg/mL (≈ 496 µM)
7 | CN1CCC(CNS(=O)(=O)c2ccccc2Nc2cc(-c3ccc4ccn(C)c4c3)c3nccnc3c2)C1 (stereo not given) | 35 µg/mL (≈ 66.5 µM)
8 | CN(C)S(=O)(=O)c1ccccc1Nc1cc(-c2ccc3ccn(C)c3c2)c2nccnc2c1 | 2 µg/mL (≈ 4.37 µM)
9 | CN(Cc1cncnc1)S(=O)(=O)c1ccccc1Nc1cc(-c2ccc3ccn(C)c3c2)c2nccnc2c1 | 3 µg/mL (≈ 5.6 µM)
10 | CN1CC(NC(=O)c2ccncc2Nc2cc(-c3ccc4ccn(C)c4c3)c3nccnc3c2)CCC1=O (stereo not given) | 253 µg/mL (≈ 500 µM)
11 | Cn1ccc2ccc(-c3cc(Nc4cnccc4C(N)=O)cc4nccnc34)cc21 | 40 µg/mL (≈ 101 µM)
12 | Cn1ccc2ccc(-c3cc(Nc4cnccc4C(=O)NCC4COCCN4)cc4nccnc34)cc21 (stereo not given) | 239 µg/mL (≈ 484 µM)
13 | CC(=O)N1CCC(NC(=O)c2ccncc2Nc2cc(-c3ccc4ccn(C)c4c3)c3nccnc3c2)CC1 | 213 µg/mL (≈ 410 µM)
14 | Cn1ccc2ccc(-c3cc(Nc4cnccc4C(=O)NCc4cncnc4)cc4nccnc34)cc21 | 233 µg/mL (≈ 479 µM)
15 | CC(=O)N1CCCC(NC(=O)c2ccncc2Nc2cc(-c3ccc4ccn(C)c4c3)c3nccnc3c2)C1 (stereo not given) | 212 µg/mL (≈ 408 µM)
16 | Cn1cc(NC(=O)c2ccncc2Nc2cc(-c3ccc4ccn(C)c4c3)c3nccnc3c2)cn1 | 2 µg/mL (≈ 4.21 µM)
17 | CN(C)C(=O)c1ccncc1Nc1cc(-c2ccc3ccn(C)c3c2)c2nccnc2c1 | 175 µg/mL (≈ 414 µM)
18 | CC(=O)N1CCOC(CNC(=O)c2ccncc2Nc2cc(-c3ccc4ccn(C)c4c3)c3nccnc3c2)C1 (stereo not given) | 268 µg/mL (≈ 500 µM)
19 | Cn1ccc2ccc(-c3cc(Nc4cnccc4C(=O)Nc4cncnc4)cc4nccnc34)cc21 | 4 µg/mL (≈ 8.47 µM)
20 | CNC(=O)c1ccncc1Nc1cc(-c2ccc3ccn(C)c3c2)c2nccnc2c1 | 4 µg/mL (≈ 9.79 µM)

Row | SMILES | solubility kinetic at 500 µM
21 | CN1CCC(NC(=O)c2ccncc2Nc2cc(-c3ccc4ccn(C)c4c3)c3nccnc3c2)C1 (stereo not given) | 229 µg/mL (≈ 480 µM)
22 | CN1CCC(NC(=O)c2ccncc2Nc2cc(-c3ccc4ccn(C)c4c3)c3nccnc3c2)CC1 | 246 µg/mL (≈ 500 µM)
23 | Cn1ccc2ccc(-c3cc(Nc4ccccc4S(=O)(=O)NCC4CCOCC4)cc4nccnc34)cc21 | 2 µg/mL (≈ 3.79 µM)
24 | CNS(=O)(=O)c1ccccc1Nc1cc(-c2ccc3ccn(C)c3c2)c2nccnc2c1 | 2 µg/mL (≈ 4.51 µM)
25 | Cn1cc(CNC(=O)c2ccncc2Nc2cc(-c3ccc4ccn(C)c4c3)c3nccnc3c2)cn1 | 127 µg/mL (≈ 260 µM)
26 | CN1CCC(NS(=O)(=O)c2ccccc2Nc2cc(-c3ccc4ccn(C)c4c3)c3nccnc3c2)C1 (stereo not given) | 26 µg/mL (≈ 50.7 µM)
27 | Cn1cc(CNS(=O)(=O)c2ccccc2Nc2cc(-c3ccc4ccn(C)c4c3)c3nccnc3c2)cn1 | 2 µg/mL (≈ 3.82 µM)
28 | CN1CCCC(NC(=O)c2ccncc2Nc2cc(-c3ccc4ccn(C)c4c3)c3nccnc3c2)C1 (stereo not given) | 246 µg/mL (≈ 500 µM)
29 | CN1CCC(NC(=O)c2ccncc2Nc2cc(-c3cc(F)c4ccn(C)c4c3)c3nccnc3c2)C1 (stereo not given) | 185 µg/mL (≈ 373 µM)
30 | Cn1ccc2ccc(-c3cc(Nc4ccccc4S(N)(=O)=O)cc4nccnc34)cc21 | 6 µg/mL (≈ 14 µM)
31 | CC(=O)N1CC(CNC(=O)c2ccncc2Nc2cc(-c3ccc4ccn(C)c4c3)c3nccnc3c2)C1 | 252 µg/mL (≈ 498 µM)
32 | Cn1ccc2ccc(-c3cc(Nc4ccccc4S(=O)(=O)NCc4cncnc4)cc4nccnc34)cc21 | 3 µg/mL (≈ 5.75 µM)
33 | Cn1ccc2ccc(-c3cc(Nc4ccccc4S(C)(=O)=O)cc4nccnc34)cc21 | 2 µg/mL (≈ 4.67 µM)
34 | Cn1ccc2ccc(-c3cc(Nc4ccccc4S(=O)(=O)Nc4cncnc4)cc4nccnc34)cc21 | 254 µg/mL (≈ 500 µM)
35 | Cn1ccc2ccc(-c3cc(Nc4ccccc4S(=O)(=O)N4CCOCC4)cc4nccnc34)cc21 | 5 µg/mL (≈ 10 µM)
36 | Cn1ccc2ccc(-c3cc(Nc4cnccc4C(=O)NC4CCNC(=O)C4)cc4nccnc34)cc21 (stereo not given) | 242 µg/mL (≈ 492 µM)
37 | CN1CCC(N(C)C(=O)c2ccncc2Nc2cc(-c3ccc4ccn(C)c4c3)c3nccnc3c2)C1 (stereo not given) | 245 µg/mL (≈ 498 µM)
38 | CC(=O)N1CCC(NC(=O)c2ccncc2Nc2cc(-c3ccc4ccn(C)c4c3)c3nccnc3c2)C1 (stereo not given) | 253 µg/mL (≈ 500 µM)
39 | CN1CCCC(NS(=O)(=O)c2ccccc2Nc2cc(-c3ccc4ccn(C)c4c3)c3nccnc3c2)C1 (stereo not given) | 9 µg/mL (≈ 17.1 µM)
40 | Cc1csc2ccc(-c3cc(Nc4cnccc4C(=O)N[C@@H]4CCN(C)C4)cc4nccnc34)cc12 | 79 µg/mL (≈ 160 µM)
